Read-outs that look alike come from different tables or passages of the source.
Legend:
cyclin D1/cdk 4 enzyme = molecular target: T1, cyclin D1/cdk 4 enzyme (Homo sapiens, UniProt P11802); assay: CDK4 ELISA kinase assay (phospho-Rb ser 795 detection); format: biochemical; settings: 200 μM ATP
T1 construct: made in house; host or cells: Sf9 insect cells, recombinant baculovirus
How it was run: (§1)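 GST-Rb C-terminal fragment coated on wells; kinase reaction: 200 μM ATP, 0.5 mg/ml BSA, HEPES pH 7.5, 10 mM MgCl2, baculovirus/Sf9 cyclin-CDK, 30° C, 1 h. Readout anti-phospho-Rb Ser795, HRP, TMB, A450. Test compound 10 ug/ml final.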

cyclin E/CDK2 enzyme = molecular target: T2, cyclin E/CDK2 enzyme (Homo sapiens, UniProt P24941); assay: CDK2 ELISA kinase assay (phospho-Rb ser 795 detection); format: biochemical; settings: In Vitro Enzyme Assays, read-out: CDK2 IC50
T2 construct: made in house; host or cells: Sf9 insect cells, recombinant baculovirus
How it was run: as §1

cyclin B/CDK1 enzyme = molecular target: T3, cyclin B/CDK1 enzyme (Homo sapiens, UniProt P06493); assay: CDK1 ELISA kinase assay (phospho-Rb ser 795 detection); format: biochemical
T3 construct: purchased New England BioLabs; host or cells: Sf9 insect cells, recombinant baculovirus
How it was run: as §1

BT474 = assay: Cytotoxicity assay (SRB), BT474; format: cell-based; settings: Homo sapiens, BT-474, 144 h, read-out: In Vitro Cellular Activity IC50 BT474
How it was run: (§2)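 Cells grown in RPMI 1640 with 5% FBS were treated with compound for three days (HCT-116, LoVo, MCF-7) or six days (BT474). Viable cell mass was quantified by sulforhodamine B staining of TCA-fixed protein and read at 540 nm.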

HCT-116 = assay: Cytotoxicity assay (SRB), HCT-116; format: cell-based; settings: Homo sapiens, HCT-116, 72 h, read-out: In Vitro Cellular Activity IC50 HCT116
How it was run: as §2

LoVo = assay: Cytotoxicity assay (SRB), LoVo; format: cell-based; settings: Homo sapiens, LoVo, 72 h, read-out: In Vitro Cellular Activity IC50 LOVO
How it was run: as §2

MCF-7 = assay: Cytotoxicity assay (SRB), MCF-7; format: cell-based; settings: Homo sapiens, MCF7, 72 h, read-out: In Vitro Cellular Activity IC50 MCF-7
How it was run: as §2

[1] = In Vitro Enzyme Assays, read-out: CDK4 IC50
[2] = In Vitro Enzyme Assays, read-out: CDK1 IC50

T1 sequence (P11802 whole entry, species assumed): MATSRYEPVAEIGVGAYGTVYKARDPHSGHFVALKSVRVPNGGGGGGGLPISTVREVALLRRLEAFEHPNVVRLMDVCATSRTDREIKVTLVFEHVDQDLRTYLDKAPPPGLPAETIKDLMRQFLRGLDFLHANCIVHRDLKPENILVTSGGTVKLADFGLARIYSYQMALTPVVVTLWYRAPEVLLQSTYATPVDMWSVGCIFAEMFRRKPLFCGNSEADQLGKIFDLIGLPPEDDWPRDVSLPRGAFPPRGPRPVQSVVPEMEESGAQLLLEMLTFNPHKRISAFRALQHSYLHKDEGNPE
T1 sequence (P24385 whole entry partner, species assumed): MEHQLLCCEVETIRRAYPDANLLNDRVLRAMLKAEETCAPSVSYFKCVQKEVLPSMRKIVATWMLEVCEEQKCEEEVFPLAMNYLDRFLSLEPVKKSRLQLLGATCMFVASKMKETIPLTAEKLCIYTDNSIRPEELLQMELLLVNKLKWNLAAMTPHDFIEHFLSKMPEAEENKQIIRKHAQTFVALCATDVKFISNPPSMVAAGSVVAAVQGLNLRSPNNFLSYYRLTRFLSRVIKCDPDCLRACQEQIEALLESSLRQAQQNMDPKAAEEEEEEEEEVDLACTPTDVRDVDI
T3 sequence (P06493 whole entry): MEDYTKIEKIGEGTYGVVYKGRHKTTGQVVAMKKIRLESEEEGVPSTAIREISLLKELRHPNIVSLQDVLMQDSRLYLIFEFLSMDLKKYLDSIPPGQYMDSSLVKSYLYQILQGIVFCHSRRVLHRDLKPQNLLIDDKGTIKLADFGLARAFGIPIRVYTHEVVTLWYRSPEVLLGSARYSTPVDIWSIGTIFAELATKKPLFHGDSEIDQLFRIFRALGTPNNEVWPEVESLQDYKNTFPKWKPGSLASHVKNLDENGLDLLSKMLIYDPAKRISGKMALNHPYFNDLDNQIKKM
T3 sequence (P14635 whole entry partner): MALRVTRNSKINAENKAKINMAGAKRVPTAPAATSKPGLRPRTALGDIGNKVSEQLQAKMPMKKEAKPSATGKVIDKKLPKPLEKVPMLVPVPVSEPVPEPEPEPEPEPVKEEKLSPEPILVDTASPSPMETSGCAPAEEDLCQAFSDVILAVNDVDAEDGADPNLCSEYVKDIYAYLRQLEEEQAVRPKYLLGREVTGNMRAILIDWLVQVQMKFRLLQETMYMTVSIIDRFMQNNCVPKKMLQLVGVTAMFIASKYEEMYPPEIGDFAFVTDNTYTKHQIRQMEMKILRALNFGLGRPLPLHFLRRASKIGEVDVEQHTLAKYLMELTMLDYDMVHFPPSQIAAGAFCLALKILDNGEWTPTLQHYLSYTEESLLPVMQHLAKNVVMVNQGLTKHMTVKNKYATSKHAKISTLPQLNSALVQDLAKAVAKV

IC50 (cyclin D1/cdk 4 enzyme; [1]) [µM] | IC50 (cyclin E/CDK2 enzyme) [µM] | IC50 (cyclin B/CDK1 enzyme; [2]) [µM] | Structure (SMILES) | IC50 (BT474; BT474 cells, SRB, 6 days) [µM] | IC50 (HCT-116; HCT116 cells, SRB, three days) [µM] | IC50 (LoVo; LoVo cells, SRB, three days) [µM] | IC50 (MCF-7; MCF-7 cells, SRB, three days) [µM] | IC50 (BT474) [µM] | IC50 (HCT-116) [µM] | IC50 (LoVo) [µM] | IC50 (MCF-7) [µM] | IC50 (cyclin D1/cdk 4 enzyme; CDK4 IC50, In Vitro Enzyme Assays) [µM] | IC50 (cyclin B/CDK1 enzyme; CDK1 IC50, In Vitro Enzyme Assays) [µM]
0.07 | 7.8 | > 50 | O=C1NC(=O)c2ccc(I)cc2/C1=C/NCc1ccc(NC(=O)c2ccccc2)c(O)c1 [Example 334, N-[2-Hydroxy-4-({[(Z)-(6-iodo-1,3-dioxo-2,3-dihydroisoquinolin-4(1H)-ylidene)methyl]amino}methyl)phenyl]benzamide] | 7.2 | 7.1 | 5.9 | 7.9 |  |  |  |  |  | 
0.02 | 1.4 | > 50 | CC(C)C(=O)Nc1ccc(CN/C=C2\C(=O)NC(=O)c3ccc(I)cc32)cc1O [Example 335, N-[2-Hydroxy-4-({[(Z)-(6-iodo-1,3-dioxo-2,3-dihydroisoquinolin-4(1H)-ylidene)methyl]amino}methyl)phenyl]-2-methylpropanamide] | 5.1 | 5 | 4.5 | 5.9 |  |  |  |  |  | 
0.04 | 5.8 | > 50 | C/C=C(\C)C(=O)Nc1ccc(CN/C=C2\C(=O)NC(=O)c3ccc(I)cc32)cc1O [Example 336, (2E)-N-[2-Hydroxy-4-({[(Z)-(6-iodo-1,3-dioxo-2,3-dihydroisoquinolin-4(1H)-ylidene)methyl]amino}methyl)phenyl]-2-methylbut-2-enamide] | 19 | 12 | 14 | 6.1 |  |  |  |  |  | 
0.02 | 1 | 3.1 | O=C(/C=C\Cl)Nc1ccc(CN/C=C2\C(=O)NC(=O)c3ccc(I)cc32)cc1O [Example 337, (2Z)-3-Chloro-N-[2-hydroxy-4-({[(Z)-(6-iodo-1,3-dioxo-2,3-dihydroisoquinolin-4(1H)-ylidene)methyl]amino}methyl)phenyl]acrylamide] | 0.73 | 0.67 | 0.91 | 1.1 |  |  |  |  |  | 
0.1 | 2.8 | 13.8 | C=C(CN(C)C)C(=O)Nc1ccc(CN/C=C2\C(=O)NC(=O)c3ccc(I)cc32)cc1O [Example 338, 2-[(Dimethylamino)methyl]-N-[2-hydroxy-4-({[(Z)-(6-iodo-1,3-dioxo-2,3-dihydroisoquinolin-4(1H)-ylidene)methyl]amino}methyl)phenyl]acrylamide] | 2 | 0.95 | 0.87 | 0.94 |  |  |  |  |  | 
0.07 | 0.37 | 0.82 | CC#CC(=O)Nc1ccc(CN/C=C2\C(=O)NC(=O)c3ccc(I)cc32)cc1O [Example 339, N-[2-Hydroxy-4-({[(Z)-(6-iodo-1,3-dioxo-2,3-dihydroisoquinolin-4(1H)-ylidene)methyl]amino}methyl)phenyl]but-2-ynamide] | 5.1 | 10 | 12 | 16 |  |  |  |  |  | 
0.07 | 1.6 | 6.1 | C#CC(=O)Nc1ccc(CN/C=C2\C(=O)NC(=O)c3ccc(I)cc32)cc1O [Example 340, N-[2-Hydroxy-4-({[(Z)-(6-iodo-1,3-dioxo-2,3-dihydroisoquinolin-4(1H)-ylidene)methyl]amino}methyl)phenyl]prop-2-ynamide] | 1.4 | 1.2 | 1.4 | 1.4 |  |  |  |  |  | 
0.02 | 0.59 | 3.1 | CCC(=O)Nc1ccc(CN/C=C2\C(=O)NC(=O)c3ccc(I)cc32)cc1O [Example 341, N-[2-Hydroxy-4-({[(Z)-(6-iodo-1,3-dioxo-2,3-dihydroisoquinolin-4(1H)-ylidene)methyl]amino}methyl)phenyl]propanamide] | 0.93 | 1 | 0.95 | 2.5 |  |  |  |  |  | 

Second part, the molecule before the results:

Structure (SMILES) | IC50 (cyclin D1/cdk 4 enzyme; [1]) [µM] | IC50 (cyclin E/CDK2 enzyme) [µM] | IC50 (cyclin B/CDK1 enzyme; [2]) [µM] | IC50 (BT474; BT474 cells, SRB, 6 days) [µM] | IC50 (HCT-116; HCT116 cells, SRB, three days) [µM] | IC50 (LoVo; LoVo cells, SRB, three days) [µM] | IC50 (MCF-7; MCF-7 cells, SRB, three days) [µM] | IC50 (BT474) [µM] | IC50 (HCT-116) [µM] | IC50 (LoVo) [µM] | IC50 (MCF-7) [µM] | IC50 (cyclin D1/cdk 4 enzyme; CDK4 IC50, In Vitro Enzyme Assays) [µM] | IC50 (cyclin B/CDK1 enzyme; CDK1 IC50, In Vitro Enzyme Assays) [µM]
CN(C)CCCCN/C=C1\C(=O)NC(=O)c2ccc(Br)cc21 [Example 305, (Z)-6-Bromo-4-((4-(dimethylamino)butylamino)methylene)isoquinoline-1,3(2H,4H)-dione] | 1.7 | 39.7 | > 50 | 23 | 21 | 14 | 18 |  |  |  |  |  | 
CN(C)CCCN/C=C1\C(=O)NC(=O)c2ccc(Br)cc21 [Example 306, (Z)-6-Bromo-4-((3-(dimethylamino)propylamino)methylene)isoquinoline-1,3(2H,4H)-dione] | 6.7 | > 50 | > 50 | 37 | 26 | 13 | 25 |  |  |  |  |  | 
O=C1NC(=O)c2ccc(Br)cc2/C1=C/NCCN1CCNCC1 [Example 307, (Z)-6-Bromo-4-((2-(piperazin-1-yl)ethylamino)methylene)isoquinoline-1,3(2H,4H)-dione] | 9.8 | 38 | > 50 | 46 | 23 | 28 | 25 |  |  |  |  |  | 
CCN(CC)CCCCN/C=C1\C(=O)NC(=O)c2ccc(Br)cc21 [Example 308, (Z)-6-Bromo-4-((4-(diethylamino)butylamino)methylene)isoquinoline-1,3(2H,4H)-dione] | 2.6 | > 50 | > 50 | 23 | 21 | 16 | 23 |  |  |  |  |  | 
O=C1NC(=O)c2ccc(Br)cc2/C1=C/NCCCN1CCCC1 [Example 309, (Z)-6-Bromo-4-((3-(pyrrolidin-1-yl)propylamino)methylene)isoquinoline-1,3(2H,4H)-dione] | 14.7 | > 50 | > 50 | 26 | 26 | 15 | 20 |  |  |  |  |  | 
O=C1NC(=O)c2ccc(Br)cc2/C1=C/NCCCN1CCOCC1 [Example 310, (Z)-6-Bromo-4-((3-morpholinopropylamino)methylene)isoquinoline-1,3(2H,4H)-dione] | 9.4 | > 50 | > 50 | 27 | 21 | 17 | 11 |  |  |  |  |  | 
O=C1NC(=O)c2ccc(Br)cc2/C1=C/NCCCN1CCCC1=O [Example 311, (Z)-6-Bromo-4-((3-(2-oxopyrrolidin-1-yl)propylamino)methylene)isoquinoline-1,3(2H,4H)-dione] | 8.6 | > 50 | > 50 | 38 | 29 | 19 | 13 |  |  |  |  |  | 
O=C1NC(=O)c2ccc(Br)cc2/C1=C/NCc1ccc(NC(=O)C(Cl)Cl)c(O)c1 [Example 320, N-[4-({[(Z)-(6-Bromo-1,3-dioxo-2,3-dihydroisoquinolin-4(1H)-ylidene)methyl]amino}methyl)-2-hydroxyphenyl]-2,2-dichloroacetamide] | 0.12 | 4 | 6.8 | 2 | 2.1 | 4.5 | 4.9 |  |  |  |  |  | 
CCC(=O)Nc1ccc(CN/C=C2\C(=O)NC(=O)c3ccc(Br)cc32)cc1 [Example 321] | > 50 | 3.6 | > 50 | 0.84 | 1.2 | 4.4 | 10 |  |  |  |  |  | 
C=CC(=O)Nc1ccc(CN/C=C2\C(=O)NC(=O)c3ccc(Br)cc32)cc1 [Example 322, N-[4-({[(Z)-(6-Bromo-1,3-dioxo-2,3-dihydroisoquinolin-4(1H)-ylidene)methyl]amino}methyl)phenyl]acrylamide] | > 50 | 7.8 | > 50 |  |  |  |  | 0.11 | 0.25 | 0.24 | 0.24 |  | 
CC(C)[Si](Oc1cc(CN/C=C2\C(=O)NC(=O)c3ccc(I)cc32)ccc1N)(C(C)C)C(C)C [Example 323, (4Z)-4-[({4-Amino-3-[(triisopropylsilyl)oxy]benzyl}amino)methylene]-6-iodoisoquinoline-1,3(2H,4H)-dione] |  | 42.5 |  | 18.3 | 22 | > 50 | 10 |  |  |  |  | 1.9 | > 50

Reference: patent US7713994B2 (Wyeth LLC, priority 2005, dated 2010)
